The values below are quoted from earlier work in patent US20210308030A1, “SYSTEM, METHODS AND KITS FOR DIAGNOSIS AND TREATMENT OF FEMALE PATTERN HAIR LOSS” (Follea International, priority 2020, published 2021).

The subject of one data set is FPHL patients. The note with it: both 2% and 5% minoxidil.

Take `O=c1c(-c2ccc(O)cc2)coc2cc(O)ccc12` [daidzein]: the water solubility result is “poor”.

With `O=c1c(-c2ccc(O)cc2)coc2cc(O)cc(O)c12` [genistein], the water solubility result is reported as “poor”.

Regarding `Nc1cc(N2CCCCC2)nc(N)[n+]1[O-]` [minoxidil], the “risk for adverse events” value in the data set with FPHL patients is listed as “low”.
